These results are taken from patent EP4752152A1, “STEROID COMPOUND, AND PREPARATION METHOD THEREFOR AND USE THEREOF” (Cholesgen (Shanghai) Co.Ltd., priority 2023, dated 2025).

For assay [1], the system named is Fatty Acid Synthase (FASN) gene. The assay is described as follows: Inhibition of FASN gene expression (qPCR) in Huh-7 cells. Type of assay: cell-based, human. The note with it: Homo sapiens, Huh-7, 16 h, Huh-7 cells, starvation medium, 16 hours, qPCR; class symbols; read-out: FASN IC50. As to the method:
Huh-7 cells (purchased from ATCC) were cultured in DMEM medium (containing 10% fetal bovine serum LONSERA S711-001S) at 37°C in a 5% CO2 incubator. After 24 hours, the original medium was aspirated and replaced with DMEM starvation medium (containing 5% lipoprotein deficient serum (LPDS), 2 µM lovastatin, and 10 µM mevalonate). The control group was treated with dimethyl sulfoxide (DMSO), while the compound treatment groups were treated with different concentrations of compounds. The highest concentration of the compound was 3000 nM, with 3-fold dilutions, totaling 5 concentrations. The cells were cultured for 16 hours. Cell lysis was performed, followed by reverse transcription from cells to cDNA, and qPCR was performed to detect the expression of the SREBP target gene Fatty Acid Synthase (FASN) gene (FASN gene forward primer sequence: 5'-[…]-3', reverse primer sequence: 5'-[…]-3'). The IC50 was calculated. The test data for each test compound were analyzed using Prism software (with the DMSO-treated group as the reference to calculate the compound inhibition rate, fitted using the Prism log(inhibitor) vs. responseVariable slope (four-parameter) model, calculation formula: Y = Bottom + (Top - Bottom)/(1 + 10^((LogIC50 - X) × HillSlope))), to obtain the IC50 parameters of the compounds. Table 4: Inhibition results of FASN gene expression by compounds from some examples
(In general: In qPCR the cycle at which signal appears reflects the starting amount.)

The test system of a further assay is SREBP pathway. The assay is described as follows: SREBP luciferase reporter gene system (SRE-luciferase assay). Format: cell-based, human. The note with it: Huh-7/SRE-luc cells, sterol-deficient medium, 0.01-10 µM. A digest of the protocol:
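Readout was SRE-driven luciferase normalised to GFP fluorescence in lysates of stably transfected Huh-7/SRE-luc hepatoma cells. Compounds (0.01, 0.03, 0.1, 0.3, 1.0, 3.0, 10 µM; DMSO control) were applied for 16 h in sterol-depleted medium with 2 µM lovastatin and 10 µM mevalonate; IC50 from variable-slope fit.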
Background: Reporter assays use an easily measured gene product as a stand-in for the process of interest.

With `COc1nc(F)ccc1[C@H](O)CCC[C@@H](C)[C@H]1CC[C@H]2[C@H]3[C@H](CC[C@]12C)[C@@]1(C)CC[C@H](O)C[C@@H]1CC3(F)F` [Compound 313, (1R,3aS,3bR,5aR,7S,9aS,9bS,11aR)-4,4-difluoro-1-[(2R,6R)-6-(6-fluoro-2-methoxypyridin-3-yl)-6-hydroxyhexan-2-yl]-9a,11a-dimethylhexadecahydro-1H-cyclopenta[1,2-a]phenanthren-7-ol], the IC50 in assay [1] is 500 to 900 nM; in the assay on SREBP pathway (Homo sapiens, Huh-7, 16 h) it was 0.076 µM.

On to `COc1ccc(C(O)CCC[C@@H](C)[C@H]2CC[C@H]3C4=C(F)C[C@H]5[C@@H](O)[C@@H](O)CC[C@]5(C)[C@H]4CC[C@]23C)c(F)c1` (stereo partly drawn) [Compound 68, (1R,3aR,5aR,6R,7S,9aR,9bR,11aR)-4-fluoro-1-[(2R)-6-(2-fluoro-4-methoxyphenyl)-6-hydroxyhexan-2-yl]-9a,11a-dimethyl-2,3,3a,5,5a,6,7,8,9,9a,9b,10,11,11a-tetradecahydro-1H-cyclopenta[1,2-a]phenanthrene-6,7-diol], for which the IC50 was 200 to 500 nM in assay [1] and 0.434 µM in the assay with SREBP pathway (Homo sapiens, Huh-7, 16 h).

Regarding `COc1ncccc1C(O)CCC[C@@H](C)[C@H]1CC[C@H]2[C@H]3[C@H](CC[C@]12C)[C@@]1(C)CC[C@H](O)[C@H](O)[C@@H]1CC3(F)F` (single isomer, unassigned) [Compound 192, (1R,3aS,3bS,5aR,6R,7S,9aR,9bS,11aR)-4,4-difluoro-1-[(2R,6S)-6-hydroxy-6-(^2-methoxypyridin-3-yl)hexan-2-yl]-9a,11a-dimethylhexadecahydro-1H-cyclopenta[1,2-a]phenanthrene-6,7-diol or (1R,3aS,3bS,5aR,6R,7S,9aR,9bS,11aR)-4,4-difluoro-1-[(2R,6R)-6-hydroxy-6-(2-methoxypyridin-3-yl)hexan-2-yl]-9a,11a-dimethylhexadecahydro-1H-cyclopenta[1,2-a]phenanthrene-6,7-diol], the IC50 was 200 to 500 nM in assay [1] and 0.053 µM with SREBP pathway (Homo sapiens, Huh-7, 16 h).

As for `COc1cccc(F)c1C(O)CCC[C@@H](C)[C@H]1CC[C@H]2C3=C(F)C[C@H]4[C@@H](O)[C@@H](O)CC[C@]4(C)[C@H]3CC[C@]12C` (stereo partly drawn) [Compound 105, (1R,3aR,5aR,6R,7S,9aR,9bR,11aR)-4-fluoro-1-[(2R)-6-(2-fluoro-6-methoxyphenyl)-6-hydroxyhexan-2-yl]-9a,11a-dimethyl-2,3,3a,5,5a,6,7,8,9,9a,9b,10,11,11a-tetradecahydro-1H-cyclopenta[1,2-a]phenanthrene-6,7-diol], the IC50 in assay [1] was 200 to 500 nM; with SREBP pathway (Homo sapiens, Huh-7, 16 h), 0.109 µM.

For `COc1nc(F)cc(F)c1C(O)CCC[C@@H](C)[C@H]1CC[C@H]2[C@H]3[C@H](CC[C@]12C)[C@@]1(C)CC[C@H](O)[C@H](O)[C@@H]1CC3(F)F` (stereo partly drawn) [Compound 206, (1R,3aS,3bS,5aR,6R,7S,9aR,9bS,11aR)-1-[(2R)-6-(4,6-difluoro-2-methoxypyridin-3-yl)-6-hydroxyhexan-2-yl]-4,4-difluoro-9a,11a-dimethylhexadecahydro-1H-cyclopenta[1,2-a]phenanthrene-6,7-diol], the IC50 was 200 to 500 nM in assay [1] and 0.145 µM in the assay with SREBP pathway (Homo sapiens, Huh-7, 16 h).

Turning to `COc1cc(F)c([C@@H](O)CCC[C@@H](C)[C@H]2CC[C@H]3[C@H]4[C@H](CC[C@]23C)[C@@]2(C)CC[C@H](O)[C@H](O)[C@@H]2CC4(F)F)c(F)c1Br` (single isomer, unassigned) [Compound 198], the IC50 was under 200 nM in assay [1] and 0.058 µM in the assay on SREBP pathway (Homo sapiens, Huh-7, 16 h).

Regarding `COc1ccnc(F)c1[C@H](O)CCC[C@@H](C)[C@H]1CC[C@H]2[C@H]3[C@H](CC[C@]12C)[C@@]1(C)CC[C@H](O)[C@H](O)[C@@H]1CC3(F)F` (single isomer, unassigned) [Compound 230], the IC50 in assay [1] is under 200 nM; in the assay with SREBP pathway (Homo sapiens, Huh-7, 16 h), 0.062 µM.

Regarding `C[C@H](CCCC(O)c1c(F)cc(F)cc1F)[C@H]1CC[C@H]2[C@H]3[C@H](CC[C@]12C)[C@@]1(C)CC[C@H](O)[C@H](O)[C@@H]1CC3(F)F` (stereo partly drawn) [Compound 69, (1R,3aS,3bS,5aR,6R,7S,9aR,9bS,11aR)-4,4-difluoro-1-[(2R)-6-hydroxy-6-(2,4,6-trifluorophenyl)hexan-2-yl]-9a,11a-dimethylhexadecahydro-1H-cyclopenta[1,2-a]phenanthrene-6,7-diol], the IC50 is under 200 nM in assay [1] and 0.086 µM in the assay with SREBP pathway (Homo sapiens, Huh-7, 16 h).

For `C[C@H](CCCC(O)c1ccccc1F)[C@H]1CC[C@H]2C3=C(F)CC4C[C@@H](O)CC[C@]4(C)[C@H]3CC[C@]12C` (stereo partly drawn) [Compound 75, (1R,3aR,7S,9aS,9bR,11aR)-4-fluoro-1-[(2R)-6-(2-fluorophenyl)-6-hydroxyhexan-2-yl]-9a,11a-dimethyl-2,3,3a,5,5a,6,7,8,9,9a,9b,10,11,11a-tetradecahydro-1H-cyclopenta[1,2-a]phenanthren-7-ol], the IC50 in assay [1] is under 200 nM; in the assay with SREBP pathway (Homo sapiens, Huh-7, 16 h), 0.37 µM.

Take `C[C@H](CCCC(O)c1ccc(F)cc1)[C@H]1CC[C@H]2[C@H]3[C@H](CC[C@]12C)[C@@]1(C)CC[C@H](O)[C@H](O)[C@@H]1CC3(F)F` (stereo partly drawn) [Compound 100, (1R,3aS,3bS,5aR,6R,7S,9aR,9bS,11aR)-4,4-difluoro-1-[(2R)-6-(4-fluorophenyl)-6-hydroxyhexan-2-yl]-9a,11a-dimethylhexadecahydro-1H-cyclopenta[1,2-a]phenanthrene-6,7-diol]: the IC50 was 200 to 500 nM in assay [1] and 0.179 µM with SREBP pathway (Homo sapiens, Huh-7, 16 h).

Take `C[C@H](CCCC(O)c1cccnc1)[C@H]1CC[C@H]2[C@H]3[C@H](CC[C@]12C)[C@@]1(C)CC[C@H](O)[C@H](O)[C@@H]1CC3(F)F` (stereo partly drawn) [Compound 54, (1R,3aS,3bS,5aR,6R,7S,9aR,9bS,11aR)-4,4-difluoro-1-[(2R)-6-hydroxy-6-(pyridin-3-yl)hexan-2-yl]-9a,11a-dimethylhexadecahydro-1H-cyclopenta[1,2-a]phenanthrene-6,7-diol]: the IC50 in assay [1] was 200 to 500 nM; with SREBP pathway (Homo sapiens, Huh-7, 16 h), 0.35 µM.

As to `COc1cccc(F)c1C(O)CCC[C@@H](C)[C@H]1CC[C@H]2[C@H]3[C@H](CC[C@]12C)[C@@]1(C)CC[C@H](O)C[C@@H]1CC3(F)F` (stereo partly drawn) [Compound 302, (1R,3aS,3bR,5aR,7S,9aS,9bS,11aR)-4,4-difluoro-1-[(2R)-6-(2-fluoro-6-methoxyphenyl)-6-hydroxyhexan-2-yl]-9a,11a-dimethylhexadecahydro-1H-cyclopenta[1,2-a]phenanthren-7-ol], the IC50 in assay [1] was under 200 nM; with SREBP pathway (Homo sapiens, Huh-7, 16 h), 0.085 µM.

On to `C[C@H](CCCC(O)c1ccc(F)cc1)[C@H]1CC[C@H]2C3=C(F)C[C@H]4[C@@H](O)[C@@H](O)CC[C@]4(C)[C@H]3CC[C@]12C` (stereo partly drawn) [Compound 101, (1R,3aR,5aR,6R,7S,9aR,9bR,11aR)-4-fluoro-1-[(2R)-6-(4-fluorophenyl)-6-hydroxyhexan-2-yl]-9a,11a-dimethyl-2,3,3a,5,5a,6,7,8,9,9a,9b,10,11,11a-tetradecahydro-1H-cyclopenta[1,2-a]phenanthrene-6,7-diol], for which the IC50 is 200 to 500 nM in assay [1] and 0.298 µM in the assay with SREBP pathway (Homo sapiens, Huh-7, 16 h).

For `C[C@H](CCCC(O)c1c(F)cccc1F)[C@H]1CC[C@H]2C3=C(F)CC4C[C@@H](O)CC[C@]4(C)[C@H]3CC[C@]12C` (stereo in doubt) [Compound 82, (1R,3aR,7S,9aS,9bR,11aR)-1-[(2R)-6-(2,6-difluorophenyl)-6-hydroxyhexan-2-yl]-4-fluoro-9a,11a-dimethyl-2,3,3a,5,5a,6,7,8,9,9a,9b,10,11,11a-tetradecahydro-1H-cyclopenta[1,2-a]phenanthren-7-ol], the IC50 in assay [1] is 200 to 500 nM; with SREBP pathway (Homo sapiens, Huh-7, 16 h) it was 0.357 µM.

On to `COc1ccnc(OC)c1C(O)CCC[C@@H](C)[C@H]1CC[C@H]2[C@H]3[C@H](CC[C@]12C)[C@@]1(C)CC[C@H](O)[C@H](O)[C@@H]1CC3(F)F` (single isomer, unassigned) [Compound 171, (1R,3aS,3bS,5aR,6R,7S,9aR,9bS,11aR)-1-[(2R,6S)-6-(2,4-dimethoxypyridin-3-yl)-6-hydroxyhexan-2-yl]-4,4-difluoro-9a,11a-dimethylhexadecahydro-1H-cyclopenta[1,2-a]phenanthrene-6,7-diol or (1R,3aS,3bS,5aR,6R,7S,9aR,9bS,11aR)-1-[(2R,6R)-6-(2,4-dimethoxypyridin-3-yl)-6-hydroxyhexan-2-yl]-4,4-difluoro-9a,11a-dimethylhexadecahydro-1H-cyclopenta[1,2-a]phenanthrene-6,7-diol], for which the figures for the IC50 (in assay [1]; in the assay with SREBP pathway (16 hours)) were under 200 nM and 0.013 µM, respectively.

`COc1cccc(F)c1[C@H](O)CC[C@@H](C)[C@H]1CC[C@H]2[C@H]3[C@H](CC[C@]12C)[C@@]1(C)CC[C@H](O)[C@H](O)[C@@H]1CC3(F)F` [Compound 346, (1R,3aS,3bS,5aR,6R,7S,9aR,9bS,11aR)-4,4-difluoro-1-[(2R,5R)-5-(2-fluoro-6-methoxyphenyl)-5-hydroxypentan-2-yl]-9a,11a-dimethylhexadecahydro-1H-cyclopenta[1,2-a]phenanthrene-6,7-diol]: the IC50 was under 200 nM in assay [1] and 0.056 µM in the assay with SREBP pathway (Homo sapiens, Huh-7, 16 h).

In general, IC50 refers to the concentration that inhibits the measured activity by half.
